Measurements from ChEMBL document CHEMBL4610069, “Chetocochliodins A-I, Epipoly(thiodioxopiperazines) from Chaetomium cochliodes” (J Nat Prod, 2020).
The source made the active and inactive calls. The rule behind the calls is not given here.

Tests used:
Assay type in all cases: functional, cell-based
A549 [1] = assay: Cytotoxicity against human A549 cells up to 100 uM by MTT assay
Huh-7 [2] = assay: Cytotoxicity against human HuH7 cells up to 100 uM by MTT assay
HeLa [3] = assay: Cytotoxicity against human HeLa cells up to 100 uM by MTT assay
A549 [4] = assay: Cytotoxicity against human A549 cells by MTT assay
Huh-7 [5] = assay: Cytotoxicity against human HuH7 cells by MTT assay
HeLa [6] = assay: Cytotoxicity against human HeLa cells by MTT assay

SMILES	Activity (A549 [1])	Activity (Huh-7 [2])	Activity (HeLa [3])	Activity (A549 [4])	Activity (Huh-7 [5])	Activity (HeLa [6])	also measured
CO[C@]1(CO)NC(=O)[C@](Cc2c[nH]c3ccccc23)(OC)NC1=O	inactive	inactive	inactive	–	–	–	–
CO[C@@]1(CO)NC(=O)[C@](Cc2c[nH]c3ccccc23)(SC)NC1=O	–	–	–	inactive	inactive	inactive	–
CO[C@]1(Cc2c[nH]c3ccccc23)NC(=O)[C@H](CO)N(C)C1=O	inactive	inactive	inactive	–	–	–	–
CO[C@]1(CO)NC(=O)[C@@](Cc2c[nH]c3ccccc23)(OC)NC1=O	inactive	inactive	inactive	–	–	–	–
CS[C@]1(CO)NC(=O)[C@](Cc2c[nH]c3ccccc23)(SC)NC1=O	–	–	–	inactive	inactive	inactive	–
CO[C@]1(CO)NC(=O)[C@](Cc2c[nH]c3ccccc23)(SC)NC1=O	–	–	–	inactive	inactive	inactive	–
CN1C(=O)[C@]2(Cc3c[nH]c4ccccc34)SSSS[C@@]1(CO)C(=O)N2C	–	–	–	–	–	–	IC50 (A549 [4]): 930 to 2450 nM; IC50 (Huh-7 [5]): 930 to 2450 nM; IC50 (HeLa [6]): 930 to 2450 nM
